A short description of series [1]: Evaluation of caking during preservation. It counts as physicochemical. Particulars: solid N-acylalanine salt; powder 25 g under 770 g spindle, 50° C., 24 hours, visual. The source says:
3. Evaluation of Caking During Preservation […] […] 6. Evaluation of Caking During Preservation: The measurement apparatus and measurement conditions were the same as in the aforementioned 3.

Series [2] in a line: Evaluation of moisture absorbability during preservation (automatic vapor absorption measurement). It counts as physicochemical. To be noted: average equilibrated moisture at humidity 70% RH, measurement temperature 25° C. How it is done:
2. Evaluation of Moisture Absorbability During Preservation: The moisture absorbability was measured under the following measurement conditions and using an automatic vapor absorption measurement apparatus “BELSORP18” manufactured by BELL JAPAN, INC. Measurement conditions: X air thermostatic tank temperature: 50° C.; X measurement temperature: 25° C.; X MAX intake pressure: 0.9×Ps (Ps: saturated vapor pressure at measurement temperature); X MIN exhaust pressure: 0.1×Ps (Ps: saturated vapor pressure at measurement temperature); and X equilibration time: 5 min. Evaluation: Average equilibrated moisture of less than 5% at humidity 70% RH is ⊙, not less than 5% to less than 10% is ◯, not less than 10% to less than 15% is A, not less than 15% is x.

The structures appear in SMILES notation.

`CCCCCCCCCCCC(=O)NC(C)C(=O)[O-].[K+]` (racemic) [Example 1, lauroyl-DL-alanine potassium salt]: the caking during preservation entry in series [1] was “⊚”. Besides, in series [2], the “moisture absorbability during preservation” value is recorded as “⊚”.

Values taken from patent US20060111258A1, “Solid N-acylalanine or a salt thereof” (AJINOMOTO CO., INC., priority 2003, published 2006).
